Here are results for 15 compounds from patent US20220348595A1, “COMPOUNDS AND METHODS FOR THE TARGETED DEGRADATION OF ESTROGEN RECEPTORS” (Endotarget Inc., priority 2021, published 2022).

One experiment has as its system ST1799 PDX tumor. Put plainly: ST1799 patient derived breast tumor xenograft. It counts as in vivo. Particulars: single agent versus vehicle control, p=0.0323; athymic nude female mice. An excerpt:
In Vivo Efficacy of Exemplary Compound 69 in ST1799 Patient Derived Breast Tumor Xenocraft
Patient-Derived Xenograft tumor fragments were harvested from host animals and implanted into 6-12 week old athymic nude female mice (Charles River NU(NCr)-Foxn1^nu). Treatment initiated at a mean tumor volume of approximately 175-300 mm^3.
(In general: In xenograft studies the graft and the host belong to different species.)

The target of a further experiment is T1, ERα (Homo sapiens, UniProt P03372).
T1 construct: endogenous in cells; host or cells: MCF-7
T1 sequence (P03372 1-595): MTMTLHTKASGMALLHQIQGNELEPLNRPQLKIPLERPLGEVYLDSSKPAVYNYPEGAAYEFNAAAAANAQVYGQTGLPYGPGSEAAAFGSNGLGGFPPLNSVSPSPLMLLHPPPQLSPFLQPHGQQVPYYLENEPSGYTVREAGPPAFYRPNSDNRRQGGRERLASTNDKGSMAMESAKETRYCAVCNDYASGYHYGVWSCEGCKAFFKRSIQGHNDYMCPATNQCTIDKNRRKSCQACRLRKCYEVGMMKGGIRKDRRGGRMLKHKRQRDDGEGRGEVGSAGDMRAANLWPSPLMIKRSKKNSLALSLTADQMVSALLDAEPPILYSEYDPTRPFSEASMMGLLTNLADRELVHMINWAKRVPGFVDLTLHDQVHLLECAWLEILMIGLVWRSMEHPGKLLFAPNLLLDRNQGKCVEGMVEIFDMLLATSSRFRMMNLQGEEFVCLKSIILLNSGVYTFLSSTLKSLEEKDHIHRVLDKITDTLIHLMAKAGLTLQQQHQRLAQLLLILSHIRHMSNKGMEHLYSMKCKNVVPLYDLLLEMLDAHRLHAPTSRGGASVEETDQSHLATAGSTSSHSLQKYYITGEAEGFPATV
Put plainly: ER degradation in MCF-7 cells (Western blot). The class given is cell-based. Particulars: for DC50: ER degradation, 24 hours. Put shortly: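 MCF-7 cells treated with a range of compound concentrations for 24 hours, then lysed; 50 μg protein probed for ERα by Western blot with infrared imaging. DC50 is concentration giving 50% ER reduction; Dmax is the highest percentage reduction over the range tested.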

The target of a further experiment is T2, ER (Homo sapiens, UniProt P03372).
T2 construct: endogenous in cells; host or cells: T47d-kb-Luc (T47D stably transfected with a luciferase reporter gene only)
T2 sequence (P03372 1-595): T1 sequence (P03372 1-595)
The experiment in a line: ER antagonism (T47D ERE luciferase), T47d-kb-Luc cells. The settings on record: read-out: IC50 (ER antagonistm). The class given is cell-based. The method, boiled down:
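Stably transfected T47d-kb-Luc human breast cancer cells were used, and antagonism was measured as inhibition of estradiol-driven activity. Data were normalised to the estradiol control. Five concentrations were tested in quadruplicate across at least three experiments.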

For experiment [1], the system named is MCF-7 breast cancer cells. Put plainly: MCF-7 proliferation / cell viability assay. It counts as cell-based. The settings on record: MCF-7 proliferation with 0.1 nM 17-beta estradiol, read-out: IC50 (anti-proliferation). Put shortly: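 MCF-7 cells in 5% FBS DMEM were exposed for 5 days to compound at 6 doses from 10^−10 M to 10^−5 M, with DMSO as vehicle. Viable cells were counted by Coulter counter. Survival ratio = treated/vehicle viable cell number, vehicle set to 100%.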

Setting [2] is: MCF7, Maximal ER degradation, read-out: Dmax.

Where two headings read alike, the source gives them in different places. Some results are limits rather than exact numbers.

Take `CC/C(=C(/c1ccc(OCCN2CCN(CC3CCN(c4ccc5c(c4)CN([C@H]4CCC(=O)NC4=O)C5=O)CC3)CC2)cc1)c1ccc(B(O)O)cc1)c1ccccc1` [Compound 69]: the tumor growth inhibition result in the experiment on ST1799 PDX tumor is given as “statistically significant tumor growth inhibition”. Also, the DC50 on ERα is below 0.01 µM. For the same compound, the Dmax at ERα (setting [2]) is above 90%. Further, the IC50 at ER was below 0.01 µM; in experiment [1] (Homo sapiens, MCF7) it was below 0.01 µM.

Take `CC/C(=C(/c1ccc(O)cc1)c1ccc(OCCN2CCN(C(=O)N3CCC(N4CCN(c5ccc6c(c5)CN(C5CCC(=O)NC5=O)C6=O)CC4)CC3)CC2)cc1)c1ccccc1` (stereo not shown) [Compound 94, (E)-3-(5-(4-(1-(4-(2-(4-(1-(4-hydroxyphenyl)-2-phenylbut-1-en-1-yl)phenoxy)ethyl)piperazine-1-carbonyl)piperidin-4-yl)piperazin-1-yl)-1-oxoisoindolin-2-yl)piperidine-2,6-dione]: the half-maximal degradation concentration (DC50) at ERα was 0.01 to 0.05 µM. In addition, on ERα (setting [2]), the Dmax was above 90%. For the same compound, the IC50 is below 0.01 µM at ER and below 0.01 µM in experiment [1] (Homo sapiens, MCF7).

Consider `CC/C(=C(/c1ccc(O)cc1)c1ccc(N2CCN(C(=O)N3CCC(CN4CCN(c5ccc6c(c5)CN(C5CCC(=O)NC5=O)C6=O)CC4)CC3)CC2)cc1)c1ccccc1` (stereo not shown) [Compound 115, (Z)-3-(5-(4-((1-(4-(4-(1-(4-hydroxyphenyl)-2-phenylbut-1-en-1-yl)phenyl)piperazine-1-carbonyl)piperidin-4-yl)methyl)piperazin-1-yl)-1-oxoisoindolin-2-yl)piperidine-2,6-dione], for which the DC50 on ERα was below 0.01 µM. Also, the Dmax on ERα (setting [2]) is above 90%. The IC50 on ER is below 0.01 µM; in experiment [1] (Homo sapiens, MCF7), below 0.01 µM.

The compound `CC/C(=C(/c1ccc(OCCN2CCN(C(=O)N3CCC(CN4CCN(c5ccc6c(c5)CN(C5CCC(=O)NC5=O)C6=O)CC4)CC3)CC2)cc1)c1ccc(B(O)O)cc1)c1ccccc1` (stereo not shown) [Compound 91, (Z)-(4-(1-(4-(2-(4-(4-((4-(2-(2,6-dioxopiperidin-3-yl)-1-oxoisoindolin-5-yl)piperazin-1-yl)methyl)piperidine-1-carbonyl)piperazin-1-yl)ethoxy)phenyl)-2-phenylbut-1-en-1-yl)phenyl)boronic acid] came in with a DC50 on ERα below 0.01 µM. Also, the Dmax at ERα (setting [2]) is above 90%. The IC50 was below 0.01 µM on ER and below 0.01 µM in experiment [1] (Homo sapiens, MCF7).

For the compound `CC/C(=C(\c1ccc(B(O)O)cc1)c1ccc(N2CCN(CCCN3CCN(c4ccc5c(c4)CN(C4CCC(=O)NC4=O)C5=O)CC3)CC2)cc1)c1ccccc1` (stereo not shown) [Compound 45, (Z)-(4-(1-(4-(4-(3-(4-(2-(2,6-dioxopiperidin-3-yl)-1-oxoisoindolin-5-yl)piperazin-1-yl)propyl)piperazin-1-yl)phenyl)-2-phenylbut-1-en-1-yl)phenyl)boronic acid], the DC50 at ERα was below 0.01 µM. The Dmax at ERα (setting [2]) was above 90%. Further, the IC50 on ER was below 0.01 µM; in experiment [1] (Homo sapiens, MCF7) it was 0.01 to 0.05 µM.

On ERα, `CC/C(=C(/c1ccc(B(O)O)cc1)c1ccc(N2CCN(CCCN3CCN(c4ccc5c(c4)C(=O)N(C4CCC(=O)NC4=O)C5=O)CC3)CC2)cc1)c1ccccc1` (stereo not shown) [Compound 44, (E)-(4-(1-(4-(4-(3-(4-(2-(2,6-dioxopiperidin-3-yl)-1,3-dioxoisoindolin-5-yl)piperazin-1-yl)propyl)piperazin-1-yl)phenyl)-2-phenylbut-1-en-1-yl)phenyl)boronic acid] registered a DC50 below 0.01 µM. Moreover, at ERα (setting [2]), the maximal degradation (Dmax) was above 90%. Moreover, the IC50 on ER was below 0.01 µM; in experiment [1] (Homo sapiens, MCF7), 0.01 to 0.05 µM.

The compound `CC/C(=C(/c1ccc(B(O)O)cc1)c1ccc(N2CCN(C(=O)N3CCC(N4CCN(c5ccc6c(c5)CN(C5CCC(=O)NC5=O)C6=O)CC4)CC3)CC2)cc1)c1ccccc1` (stereo not shown) [Compound 112, (E)-(4-(1-(4-(4-(4-(4-(2-(2,6-dioxopiperidin-3-yl)-1-oxoisoindolin-5-yl)piperazin-1-yl)piperidine-1-carbonyl)piperazin-1-yl)phenyl)-2-phenylbut-1-en-1-yl)phenyl)boronic acid] came in with a half-maximal degradation concentration (DC50) on ERα of 0.01 to 0.05 µM. Further, the Dmax on ERα (setting [2]) was above 90%. Besides, the IC50 is below 0.01 µM at ER and 0.01 to 0.05 µM in experiment [1] (Homo sapiens, MCF7).

At ERα, `CC/C(=C(/c1ccc(OCCCCCN2CCN(c3ccc4c(c3)CN(C3CCC(=O)NC3=O)C4=O)CC2)cc1)c1ccc(B(O)O)cc1)c1ccccc1` (stereo not shown) [Compound 35, (Z)-(4-(1-(4-((5-(4-(2-(2,6-dioxopiperidin-3-yl)-1-oxoisoindolin-5-yl)piperazin-1-yl)pentyl)oxy)phenyl)-2-phenylbut-1-en-1-yl)phenyl)boronic acid] had a DC50 of 0.01 to 0.05 µM. On ERα (setting [2]), the Dmax is above 90%. Besides, the IC50 on ER was 0.01 to 0.05 µM; in experiment [1] (Homo sapiens, MCF7), 0.01 to 0.05 µM.

`CC/C(=C(\c1ccc(OCCN2CCN(CC3CCN(c4ccc5c(c4)CN([C@H]4CCC(=O)NC4=O)C5=O)CC3)CC2)cc1)c1ccc(B(O)O)cc1)c1ccccc1` [Compound 71]: on ERα, the DC50 is below 0.01 µM. Further, the Dmax at ERα (setting [2]) is above 90%. The IC50 is below 0.01 µM on ER and below 0.01 µM in experiment [1] (Homo sapiens, MCF7).

In turn, `CC/C(=C(\c1ccc(O)cc1)c1ccc(OCCN2CCN(C(=O)N3CCC(CN4CCN(c5ccc6c(c5)CN(C5CCC(=O)NC5=O)C6=O)CC4)CC3)CC2)cc1)c1ccccc1` (stereo not shown) [Compound 89] showed a DC50 on ERα below 0.01 µM. In addition, at ERα (Maximal ER degradation), the Dmax entry is “A (A -> 90%)”. Besides, the IC50 (on ER; in experiment [1]) was below 0.01 µM each time.

On to `CC/C(=C(/c1ccc(B(O)O)cc1)c1ccc(C2CCN(CCCN3CCN(c4ccc5c(c4)CN(C4CCC(=O)NC4=O)C5=O)CC3)CC2)cc1)c1ccccc1` (stereo not shown) [Compound 50, (E)-(4-(1-(4-(1-(3-(4-(2-(2,6-dioxopiperidin-3-yl)-1-oxoisoindolin-5-yl)piperazin-1-yl)propyl)piperidin-4-yl)phenyl)-2-phenylbut-1-en-1-yl)phenyl)boronic acid], for which the DC50 at ERα was below 0.01 µM. Moreover, the Dmax on ERα (setting [2]) was above 90%. In addition, the IC50 on ER is below 0.01 µM; in experiment [1] (Homo sapiens, MCF7), 0.01 to 0.05 µM.

As for `CC/C(=C(\c1ccc(OCCN2CCC(N3CCN(c4ccc5c(c4)C(=O)N(C4CCC(=O)NC4=O)C5=O)CC3)CC2)cc1)c1ccc(B(O)O)cc1)c1ccccc1` (stereo not shown) [Compound 32, (E)-(4-(1-(4-(2-(4-(4-(2-(2,6-dioxopiperidin-3-yl)-1,3-dioxoisoindolin-5-yl)piperazin-1-yl)piperidin-1-yl)ethoxy)phenyl)-2-phenylbut-1-en-1-yl)phenyl)boronic acid], the DC50 at ERα was 0.01 to 0.05 µM. Further, on ERα (setting [2]), the Dmax was above 90%. Further, the IC50 was above 0.05 µM on ER and above 0.05 µM in experiment [1] (Homo sapiens, MCF7).

As for `CC/C(=C(/c1ccc(B2OC(C)(C)C(C)(C)O2)cc1)c1ccc(N2CCC(CCN3CCN(c4ccc5c(c4)CN(C4CCC(=O)NC4=O)C5=O)CC3)CC2)cc1)c1ccccc1` (stereo not shown) [Compound 10, (E)-3-(1-oxo-5-(4-(2-(1-(4-(2-phenyl-1-(4-(4,4,5,5-tetramethyl-1,3,2-dioxaborolan-2-yl)phenyl)but-1-en-1-yl)phenyl)piperidin-4-yl)ethyl)piperazin-1-yl)isoindolin-2-yl)piperidine-2,6-dione], on ERα, the DC50 was in the range of 0.01 to 0.05 µM. In addition, at ERα (setting [2]), the Dmax is above 90%. Further, the IC50 on ER was below 0.01 µM; in experiment [1] (Homo sapiens, MCF7) it was below 0.01 µM.

`CC/C(=C(/c1ccc(B(O)O)cc1)c1ccc(N2CCC(CCN3CCN(c4ccc5c(c4)C(=O)N(C4CCC(=O)NC4=O)C5=O)CC3)CC2)cc1)c1ccccc1` (stereo not shown) [Compound 64] gave a DC50 on ERα of 0.01 to 0.05 µM. For the same compound, the Dmax on ERα (setting [2]) was above 90%. Moreover, the IC50 on ER fell in the range of 0.01 to 0.05 µM; in experiment [1] (Homo sapiens, MCF7) it was 0.01 to 0.05 µM.

As to `CC/C(=C(/c1ccc(B(O)O)cc1)c1ccc(N2CCC(CCCN3CCN(c4ccc5c(c4)CN(C4CCC(=O)NC4=O)C5=O)CC3)CC2)cc1)c1ccccc1` (stereo not shown) [Compound 54], the DC50 on ERα was below 0.01 µM. In addition, at ERα (setting [2]), the Dmax is above 90%. In addition, the IC50 at ER was below 0.01 µM; in experiment [1] (Homo sapiens, MCF7), 0.01 to 0.05 µM.

Usually DC50 stands for the concentration giving 50% degradation. Low readings indicate degradation at low concentration, high ones degradation only at high concentration. In general, Dmax refers to the greatest extent of degradation seen.
